Source: article PMC10569260 (Nature methods, 2023)

Columns and labels:
[1] = tested on: locomotion; assay: Open field locomotion with infusion / in vivo uncaging in the VTA; design: species or system mouse; conditions: naloxone 3 mg/kg intraperitoneal before CNV-Y-DAMGO infusion and light
[2] = tested on: inhibitory synaptic transmission onto CA1 pyramidal neurons (native opioid receptors); type: cell-based, mouse; conditions: CTAP 1 μM, with CNV-Y-DAMGO uncaging

C=CCN1CC[C@]23c4c5ccc(O)c4O[C@H]2C(=O)CC[C@@]3(O)[C@H]1C5 [naloxone]
effect on locomotor response to DAMGO photorelease [1]: strongly attenuated

CTAP
effect on optically-evoked suppression of synaptic transmission [2]: completely blocked
